Test results taken from patent publication EP0933027A1, “Methods and compositions for protecting animals and humans against attack and infestation by arthropod and helminth parasites” (American Cyanamid Company, priority 1998, dated 1999).
Read-outs that look alike come from different tables or passages of the source.

Assays:
Dermacentor variabilis = assay: Contact activity against larval American dog tick (coated vial)
Method: This test is designed to evaluate the contact activity of test compounds against the American dog tick. Test compounds are dissolved in 100% acetone to 1000, 300, 100, 10, 1 and 0.1 ppm. 100 µL of each of these dilutions is added to the bottom of a 20 mL glass scintillation vial with a pipettor. The vial is allowed to dry under a fume hood for 15 minutes. The vial is then turned in its side, and 250 µL of each dilution is applied to the sides of the vial. The vial is placed on a rolling machine and allowed to roll under the hood, coating the sides of the vial, until the acetone completely evaporates. The bottom of the vial measures 4.909 cm^2 and the sides measure 4.5 cm high x 8.8 cm around, so that the total coated area of the scintillation vial measures 44.51 cm^2. The amount of test compound applied by each dilution equals 7.86, 2.36, 0.79, 0.079, 0.0079 and 0.00079 µg/cm^2, respectively. Unfed larval dog ticks are counted into the scintillation vials with a slightly damp paintbrush. Ten ticks are placed in each vial. These tests are done in replicates of two or three so that there are 20 to 30 ticks per rate/compound. Mortality readings are taken 4 and 24 hours after placing the ticks in the vials. To read the test, the vial is placed under a magnifying glass and tapped gently. […] Percent mortality is then calculated for each treatment.

Ctenocephalides felis = assay: Contact activity against adult cat flea, with and without piperonyl butoxide
Method: This test is designed to evaluate the contact activity of test compounds against the adult cat flea. Test compounds are dissolved in 100% acetone to 300, 100, 10 and 1 ppm. 100 µL of each of these dilutions is added to the bottom of a 20 mL glass scintillation vial with a pipettor. The vial is allowed to dry under a fume hood for 15 minutes. The bottom of the vial measures 4.909 cm^2. The amount of test compound applied by each dilution equals 6.2, 2.0, 0.2 and 0.02 µg/cm^2, respectively. Newly emerged adult cat fleas are anesthetized with CO2 to immobilize, and are counted into the scintillation vials with forceps. Five fleas are placed in each vial. These tests are done in replicates of two or three so that there are 10 to 15 fleas per rate/compound. Mortality readings are taken 4 and 24 hours after placing the fleas in the vials. […] Percent mortality is then calculated for each treatment.
This test evaluates the synergistic effect of piperonyl butoxide on the formula I compounds of this invention. Piperonyl butoxide (PBO) is added in an amount of 1.5% to a 1,000 ppm solution of a test compound in acetone. Dilutions are then made with acetone to provide solutions containing 300, 100, 10 and 1 ppm of the test compound and 0.45%, 0.15%, 0.015% and 0.0015% piperonyl butoxide, respectively. Solutions containing 1,000, 300, 100, 10 and 1 ppm of the test compound alone are used as the control. The evaluations are conducted according to the procedure described in Example 1.

Bovicola spp. = assay: Coated vial test against adult biting louse; conditions: for mortality at 2 µg/cm2: dose 2.0 µg/cm^2; for mortality at 6.1 µg/cm2: dose 6.1 µg/cm^2
Method: This test is designed to evaluate the activity of test compounds against the biting louse. Test compounds are dissolved in 100% acetone to 300, 100 and 10 ppm. 100 µL of each of these dilutions is added to the bottom of a 20 mL glass scintillation vial with a pipettor. The vial is allowed to dry under a fume hood for 15 minutes. The bottom of the vial measures 4.909 cm^2. The amount of test compound applied by each dilution equals 6.1, 2.0 and 0.2 µg/cm^2, respectively. Included in all tests are two to three replications of untreated vials. Lice are collected from the host animal and are used within 4 hours. The lice are counted into the scintillation vials with a slightly damp paintbrush. Five adult lice are placed in each vial. These tests are done in replicates of two or three so that there are 10 to 15 lice per rate/compound. Mortality readings are taken at 2 and 4 hours after placing the lice in the vials. To read the test, the vial is placed under a magnifying glass. […] Percent mortality is then calculated for each treatment.

[1] = tested on: ovine Trichstrongylus colubriformis larvae; assay: Systemic activity against helminth larvae in infected Mongolian gerbils (medicated diet); assay type: in vivo; conditions: 500 ppm in feed; medicated diet for 3 days from ten days post infection; nematode burdens treated versus non-treated
Method: This test is designed to evaluate the systemic activity of test compounds against helminth parasites. Mongolian gerbils are infected orally with ovine Trichstrongylus colubrifomis larvae. Ten days post infection, the gerbils are treated with test compounds by diet incorporation. After feeding on the medicated diet for 3 days, the gerbils are sacrificed and gastrointestinal nematode populations are counted. Efficacy is determined by statistical analyses of treated versus non-treated nematode burdens.

[2] = 4 h, read-out: 4 Hour % Mortality
[3] = 24 h, read-out: 24 Hour % Mortality
[4] = 2 hours, read-out: 2 Hour % Mortality
[5] = 4 hours, read-out: 4 Hour % Mortality

F/C(=C\Cc1ccc(F)c(Oc2ccccc2)c1)C(c1ccc(Cl)cc1)C1CC1 (stereo not shown) [Compound 5, 1-[1-(p-Chlorophenyl)-2-fluoro-4-(4-fluoro-3-phenoxyphenyl)-2-butenyl]cyclopropane, (Z)-]
mortality at 0.00079 µg/cm2 (Dermacentor variabilis; [2]): 100% | mortality at 0.0079 µg/cm2 (Dermacentor variabilis; [2]): 100% | mortality at 0.079 µg/cm2 (Dermacentor variabilis; [2]): 100% | mortality at 0.79 µg/cm2 (Dermacentor variabilis; [2]): 100% | mortality at 2.36 µg/cm2 (Dermacentor variabilis; [2]): 100% | mortality at 7.86 µg/cm2 (Dermacentor variabilis; [2]): 100% | mortality at 0.00079 µg/cm2 (Dermacentor variabilis; [3]): 100% | mortality at 0.0079 µg/cm2 (Dermacentor variabilis; [3]): 100% | mortality at 0.079 µg/cm2 (Dermacentor variabilis; [3]): 100% | mortality at 0.79 µg/cm2 (Dermacentor variabilis; [3]): 100% | mortality at 2.36 µg/cm2 (Dermacentor variabilis; [3]): 100% | mortality at 7.86 µg/cm2 (Dermacentor variabilis; [3]): 100% | mortality at 0.02 µg/cm2 (Ctenocephalides felis; 4 h, dose 0.02 µg/cm^2, 0.0 % PBO (test compound alone), 4 hours, read-out: 4 Hour % Mortality): 0% | mortality at 0.02 µg/cm2 (Ctenocephalides felis; 4 h, dose 0.02 µg/cm^2, 0.0015 % PBO in composition, 4 hours, read-out: 4 Hour % Mortality): 0% | mortality at 0.2 µg/cm2 (Ctenocephalides felis; 4 h, dose 0.2 µg/cm^2, 0.0 % PBO (test compound alone), 4 hours, read-out: 4 Hour % Mortality): 20% | mortality at 0.2 µg/cm2 (Ctenocephalides felis; 4 h, dose 0.2 µg/cm^2, 0.015 % PBO in composition, 4 hours, read-out: 4 Hour % Mortality): 40% | mortality at 2 µg/cm2 (Ctenocephalides felis; 4 h, dose 2.0 µg/cm^2, 0.0 % PBO (test compound alone), 4 hours, read-out: 4 Hour % Mortality): 30% | mortality at 2 µg/cm2 (Ctenocephalides felis; 4 h, dose 2.0 µg/cm^2, 0.15 % PBO in composition, 4 hours, read-out: 4 Hour % Mortality): 20% | mortality at 6.2 µg/cm2 (Ctenocephalides felis; 4 h, dose 6.2 µg/cm^2, 0.0 % PBO (test compound alone), 4 hours, read-out: 4 Hour % Mortality): 30% | mortality at 6.2 µg/cm2 (Ctenocephalides felis; 4 h, dose 6.2 µg/cm^2, 0.45 % PBO in composition, 4 hours, read-out: 4 Hour % Mortality): 20% | mortality at 20 µg/cm2 (Ctenocephalides felis; 4 h, dose 20.0 µg/cm^2, 0.0 % PBO (test compound alone), 4 hours, read-out: 4 Hour % Mortality): 100% | mortality at 20 µg/cm2 (Ctenocephalides felis; 4 h, dose 20.0 µg/cm^2, 1.50 % PBO in composition, 4 hours, read-out: 4 Hour % Mortality): 100% | mortality at 0.02 µg/cm2 (Ctenocephalides felis; 24 h, dose 0.02 µg/cm^2, 0.0 % PBO (test compound alone), 24 hours, read-out: 24 Hour % Mortality): 10% | mortality at 0.02 µg/cm2 (Ctenocephalides felis; 24 h, dose 0.02 µg/cm^2, 0.0015 % PBO in composition, 24 hours, read-out: 24 Hour % Mortality): 70% | mortality at 0.2 µg/cm2 (Ctenocephalides felis; 24 h, dose 0.2 µg/cm^2, 0.0 % PBO (test compound alone), 24 hours, read-out: 24 Hour % Mortality): 20% | mortality at 0.2 µg/cm2 (Ctenocephalides felis; 24 h, dose 0.2 µg/cm^2, 0.015 % PBO in composition, 24 hours, read-out: 24 Hour % Mortality): 100% | mortality at 2 µg/cm2 (Ctenocephalides felis; 24 h, dose 2.0 µg/cm^2, 0.0 % PBO (test compound alone), 24 hours, read-out: 24 Hour % Mortality): 100% | mortality at 2 µg/cm2 (Ctenocephalides felis; 24 h, dose 2.0 µg/cm^2, 0.15 % PBO in composition, 24 hours, read-out: 24 Hour % Mortality): 100% | mortality at 6.2 µg/cm2 (Ctenocephalides felis; 24 h, dose 6.2 µg/cm^2, 0.0 % PBO (test compound alone), 24 hours, read-out: 24 Hour % Mortality): 100% | mortality at 6.2 µg/cm2 (Ctenocephalides felis; 24 h, dose 6.2 µg/cm^2, 0.45 % PBO in composition, 24 hours, read-out: 24 Hour % Mortality): 100% | mortality at 20 µg/cm2 (Ctenocephalides felis; 24 h, dose 20.0 µg/cm^2, 0.0 % PBO (test compound alone), 24 hours, read-out: 24 Hour % Mortality): 100% | mortality at 20 µg/cm2 (Ctenocephalides felis; 24 h, dose 20.0 µg/cm^2, 1.50 % PBO in composition, 24 hours, read-out: 24 Hour % Mortality): 100% | mortality at 2 µg/cm2 (Bovicola spp.; [4]): 92% | mortality at 2 µg/cm2 (Bovicola spp.; [5]): 100% | mortality at 6.1 µg/cm2 (Bovicola spp.; [4]): 100% | mortality at 6.1 µg/cm2 (Bovicola spp.; [5]): 100% | % Efficacy [1]: 46%
